Experimental data from patent publication US4740233A, “Substituted 1,2,4-triazolo[1,5-a]-pyrimidine-2-sulfonamides and compositions and methods of controlling undesired vegetation and suppressing the nitrification of ammonium nitrogen in soil” (The Dow Chemical Company, priority 1986, dated 1988).

Legend:
[1] = test system: cotton; assay: Preemergent control of plant species; format: in vivo, Gossypium spp.; details: Gossypium hirsutum, pre-emergence, 336 h; 0.25 lb/acre; read-out: percent preemergent control
How it was run: (§1)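 Preemergent application of aqueous emulsions at rates given in the table, uniformly over seeded greenhouse soil. Untreated (water) beds as comparison; rating after 2 weeks as reduction in growth.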

[2] = test system: rape; assay: Preemergent control of plant species; format: in vivo, Brassica napus; details: Brassica napus, pre-emergence, 336 h; 0.25 lb/acre; read-out: percent preemergent control
How it was run: as §1

[3] = test system: soybean; assay: Preemergent control of plant species; format: in vivo, Glycine max.; details: Glycine max, pre-emergence, 336 h; 0.25 lb/acre; read-out: percent preemergent control
How it was run: as §1

[4] = test system: sugar beet; assay: Preemergent control of plant species; format: in vivo, Beta saccharifera; details: Beta vulgaris, pre-emergence, 336 h; 0.25 lb/acre; read-out: percent preemergent control
How it was run: as §1

[5] = test system: jimsonweed; assay: Preemergent control of plant species; format: in vivo, Datura stramonium; details: Datura stramonium, pre-emergence, 336 h; 0.25 lb/acre; read-out: percent preemergent control
How it was run: as §1

[6] = test system: annual morning glory; assay: Preemergent control of plant species; format: in vivo, Ipomoea spp.; details: Ipomoea, pre-emergence, 336 h; 0.25 lb/acre; read-out: percent preemergent control
How it was run: as §1

[7] = test system: pigweed; assay: Preemergent control of plant species; format: in vivo, Amaranthus spp.; details: Amaranthus retroflexus, pre-emergence, 336 h; 0.25 lb/acre; read-out: percent preemergent control
Protocol: The seeds of various species of plants were planted in beds of good agricultural soil in a greenhouse. A number of compositions of the present invention, generally in the nature of an aqueous emulsion, were applied at rates listed in the table so as to deposit a predetermined amount of active ingredients uniformly throughout the surface of the bed. Another seed bed was treated only with water to serve as a control. After treatment the seed beds were maintained for two weeks under greenhouse conditions conducive for good plant growth and watered as necessary. Control refers to the reduction in growth compared to the observed results of the same untreated species.

[8] = test system: velvetleaf; assay: Preemergent control of plant species; format: in vivo, Abutilon theophrasti; details: Abutilon theophrasti, pre-emergence, 336 h; 0.25 lb/acre; read-out: percent preemergent control
How it was run: as §1

[9] = test system: corn; assay: Preemergent control of plant species; format: in vivo, Zea mays; details: Zea mays, pre-emergence, 336 h; 0.25 lb/acre; read-out: percent preemergent control
How it was run: as §1

[10] = test system: rice; assay: Preemergent control of plant species; format: in vivo, Oryza sativa; details: Oryza sativa, pre-emergence, 336 h; 0.25 lb/acre; read-out: percent preemergent control
How it was run: as §1

[11] = test system: sorghum; assay: Preemergent control of plant species; format: in vivo, Sorghum vulgare; details: Sorghum, pre-emergence, 336 h; 0.25 lb/acre; read-out: percent preemergent control
How it was run: as §1

[12] = test system: wheat; assay: Preemergent control of plant species; format: in vivo, Triticum aestivum; details: Triticum aestivum, pre-emergence, 336 h; 0.25 lb/acre; read-out: percent preemergent control
How it was run: as §1

[13] = test system: barnyardgrass; assay: Preemergent control of plant species; format: in vivo, Echinochloa crusgalli; details: Echinochloa crus-galli, pre-emergence, 336 h; 0.25 lb/acre; read-out: percent preemergent control
How it was run: as §1

[14] = test system: crabgrass; assay: Preemergent control of plant species; format: in vivo, Digitaria spp.; details: Digitaria sanguinalis, pre-emergence, 336 h; 0.25 lb/acre; read-out: percent preemergent control
How it was run: as §1

[15] = test system: johnson grass; assay: Preemergent control of plant species; format: in vivo, Sorghum halepense; details: Sorghum halepense, pre-emergence, 336 h; 0.25 lb/acre; read-out: percent preemergent control
How it was run: as §1

[16] = test system: wild oats; assay: Preemergent control of plant species; format: in vivo; details: Avena fatua, pre-emergence, 336 h; 0.25 lb/acre; read-out: percent preemergent control
How it was run: as §1

[17] = test system: yellow foxtail; assay: Preemergent control of plant species; format: in vivo, Setaria lutescens; details: Setaria, pre-emergence, 336 h; 0.25 lb/acre; read-out: percent preemergent control
How it was run: as §1

[18] = test system: yellow nutsedge; assay: Preemergent control of plant species; format: in vivo, Cyperus esculentus; details: Cyperus, pre-emergence, 336 h; 0.25 lb/acre; read-out: percent preemergent control
How it was run: as §1

[19] = test system: rice; assay: Control of aquatic plant species (paddy water); format: in vivo, Oryza sativa; details: Oryza sativa, 216 h, nine days, read-out: Percent control; for pest or weed control at 31 g/ha: 0.031 Kg/Ha; for pest or weed control at 1000 g/ha: 1.0 Kg/Ha
How it was run: (§2)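 First, young plants (1-2 inch stage) were set into about 2 inches of soil. Next, pots were flooded to about 1 inch depth. Then acetone concentrate was injected into the water at varying volumes to give the intended concentration. Finally, control was assessed after nine days.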

[20] = test system: barnyardgrass; assay: Control of aquatic plant species (paddy water); format: in vivo, Echinochloa crusgalli; details: Echinochloa crus-galli, 216 h, nine days, read-out: Percent control; for pest or weed control at 31 g/ha: 0.031 Kg/Ha; for pest or weed control at 1000 g/ha: 1.0 Kg/Ha
Protocol: In testing for such utility, the plant species to be tested were transplanted into 16 oz. containers into about 2 inches of soil when they were in the 1-2 inch stage and then flooded to a depth of about 1 inch. An acetone concentrate of the chemical to be tested was then injected into the paddy water, the volume injected being varied as desired to provide the desired concentration. Percent control was evaluated nine days after application.

[21] = test system: sprangletop; assay: Control of aquatic plant species (paddy water); format: in vivo, Leptochloa filiformis; details: Leptochloa filiformis, 216 h, nine days, read-out: Percent control; for pest or weed control at 31 g/ha: 0.031 Kg/Ha; for pest or weed control at 1000 g/ha: 1.0 Kg/Ha
How it was run: as §2

[22] = test system: yellow nutsedge; assay: Control of aquatic plant species (paddy water); format: in vivo, Cyperus esculentus; details: Cyperus, 216 h, nine days, read-out: Percent control; for pest or weed control at 31 g/ha: 0.031 Kg/Ha; for pest or weed control at 1000 g/ha: 1.0 Kg/Ha
How it was run: as §2

[23] = test system: nitrification of ammonium nitrogen; assay: Suppression of nitrification of ammonium nitrogen in soil; details: 27° C.
How it was run: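 Soil (20 g) moistened to its 1/3 bar tension value, mixed with test chemical and incubated sealed for two weeks at 27° C. Nitrate extracted with ammonium sulfate solution and measured by nitrate-specific ion electrode; value given as % NH4-N remaining.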

SMILES	plant injury at 280.212 g/ha [1]	plant injury at 280.212 g/ha [2]	plant injury at 280.212 g/ha [3]	plant injury at 280.212 g/ha [4]	pest or weed control at 280.212 g/ha [5]	pest or weed control at 280.212 g/ha [6]	pest or weed control at 280.212 g/ha [7]	pest or weed control at 280.212 g/ha [8]	plant injury at 280.212 g/ha [9]	plant injury at 280.212 g/ha [10]	plant injury at 280.212 g/ha [11]	plant injury at 280.212 g/ha [12]	pest or weed control at 280.212 g/ha [13]	pest or weed control at 280.212 g/ha [14]	pest or weed control at 280.212 g/ha [15]	pest or weed control at 280.212 g/ha [16]	pest or weed control at 280.212 g/ha [17]	pest or weed control at 280.212 g/ha [18]	% NH4-N Remaining After 2 Weeks Incubation ([23]; 1 ppm)	% NH4-N Remaining After 2 Weeks Incubation ([23]; 0.06 ppm)	further results
Cc1ccn2nc(S(=O)(=O)Nc3c(Cl)cccc3Cl)nc2n1 [Compound 143, 5-Methyl-N-(2,6-dichlorophenyl)-1,2,4-triazolo[1,5-a]pyrimidine-2-sulfonamide]	100%	95%	70%	100%	100%	90%	100%	97%	95%	97%	99%	50%	97%	100%	100%	50%	97%	100%	91%		pest or weed control at 31 g/ha [19]: 0%; pest or weed control at 500 g/ha ([19]; 0.5 Kg/Ha): 95%; pest or weed control at 31 g/ha [20]: 95%; pest or weed control at 500 g/ha ([20]; 0.5 Kg/Ha): 99%; pest or weed control at 31 g/ha [21]: 0%; pest or weed control at 500 g/ha ([21]; 0.5 Kg/Ha): 97%; pest or weed control at 31 g/ha [22]: 93%; pest or weed control at 500 g/ha ([22]; 0.5 Kg/Ha): 97%; % NH4-N Remaining After 2 Weeks Incubation ([23]; 0.01 ppm): 50%; % NH4-N Remaining After 2 Weeks Incubation ([23]; 0.1 ppm): 78%; % NH4-N Remaining After 2 Weeks Incubation ([23]; 10 ppm): 100%
Cc1cc(C)n2nc(S(=O)(=O)Nc3c(F)cccc3C(=O)OC(C)C)nc2n1 [Compound 51]	93%	95%	90%	95%	95%	80%	100%	95%	97%	80%	97%	97%	97%	95%	95%	100%	97%	100%	78%	33%	pest or weed control at 31 g/ha [19]: 0%; pest or weed control at 1000 g/ha [19]: 95%; pest or weed control at 31 g/ha [20]: 35%; pest or weed control at 1000 g/ha [20]: 97%; pest or weed control at 31 g/ha [21]: 0%; pest or weed control at 1000 g/ha [21]: 70%; pest or weed control at 31 g/ha [22]: 93%; pest or weed control at 1000 g/ha [22]: 97%; % NH4-N Remaining After 2 Weeks Incubation ([23]; 0.25 ppm): 58%; % NH4-N Remaining After 2 Weeks Incubation ([23]; 4 ppm): 87%
Cc1cc(C)n2nc(S(=O)(=O)Nc3ccccc3Br)nc2n1 [Compound 41]	40%	80%	25%	80%	0%	10%	0%	10%	0%	0%	20%	0%	80%	10%	35%	0%	30%	70%	87%	23%	pest or weed control at 1000 g/ha [19]: 97%; pest or weed control at 1000 g/ha [20]: 99%; pest or weed control at 1000 g/ha [21]: 95%; pest or weed control at 1000 g/ha [22]: 80%; % NH4-N Remaining After 2 Weeks Incubation ([23]; 0.1 ppm): 54%; % NH4-N Remaining After 2 Weeks Incubation ([23]; 10 ppm): 100%
Cc1nc2nc(S(=O)(=O)Nc3c(Cl)cccc3Cl)nn2c(C)c1C [Compound 111]	20%	95%	10%	90%	95%	20%	50%	80%	35%	65%	65%	0%	15%	90%	75%	0%	30%	93%	69%	22%	pest or weed control at 4000 g/ha ([19]; 4.0 Kg/Ha): 93%; pest or weed control at 4000 g/ha ([20]; 4.0 Kg/Ha): 99%; pest or weed control at 4000 g/ha ([21]; 4.0 Kg/Ha): 80%; pest or weed control at 4000 g/ha ([22]; 4.0 Kg/Ha): 99%; % NH4-N Remaining After 2 Weeks Incubation ([23]; 0.25 ppm): 60%; % NH4-N Remaining After 2 Weeks Incubation ([23]; 4 ppm): 92%
